Columns and labels:
Rattus norvegicus [1] = test: Toxicity in Donryu rat allografted with rat AH-130 cells assessed as body weight change at 0.45 mmol/kg, po administered for 7 days measured on day 10 relative to control; type: organism-based; settings: in vivo, 168 h
[2] = Antitumor activity against mouse Ehrlich carcinoma cells allografted in ddY mouse assessed as tumor inhibition at 0.45 mmol/kg, po qd for 7 days measured on day 10 relative to control; type: functional; settings: read-out: TGI
W256 [3] = test: Antitumor activity against rat Walker 256 cells allografted in Wistar rat assessed as tumor inhibition at 0.45 mmol/kg, po qd for 7 days measured on day 10 relative to control; type: functional; settings: read-out: TGI
YOSHIDA [4] = test: Antitumor activity against rat Yoshida cells allografted in Donryu rat assessed as tumor inhibition at 0.45 mmol/kg, po qd for 7 days measured on day 10 relative to control; type: functional; settings: read-out: TGI
Sarcoma-180 [5] = test: Antitumor activity against mouse Sarcoma 180 cells allografted in ICR mouse assessed as tumor inhibition at 0.45 mmol/kg, po qd for 7 days measured on day 10 relative to control; type: functional; settings: Sarcoma-180, po, read-out: TGI
W256 [6] = test: Antitumor activity against rat Walker 256 cells allografted in Wistar rat assessed as tumor inhibition at 0.15 mmol/kg, po qd for 7 days measured on day 10 relative to control; type: functional; settings: read-out: TGI
[7] = Antitumor activity against rat AH-130 cells allografted in Donryu rat assessed as tumor inhibition at 0.15 mmol/kg, po qd for 7 days measured on day 10 relative to control; type: functional; settings: read-out: TGI
[8] = Antitumor activity against mouse Ehrlich carcinoma cells allografted in ddY mouse assessed as tumor inhibition at 0.15 mmol/kg, po qd for 7 days measured on day 10 relative to control; type: functional; settings: read-out: TGI
[9] = Antitumor activity against rat AH-130 cells allografted in Donryu rat assessed as tumor inhibition at 0.45 mmol/kg, po qd for 7 days measured on day 10 relative to control; type: functional; settings: read-out: TGI
Sarcoma-180 [10] = test: Antitumor activity against mouse Sarcoma 180 cells allografted in ICR mouse assessed as tumor inhibition at 0.15 mmol/kg, po qd for 7 days measured on day 10 relative to control; type: functional; settings: Sarcoma-180, po, read-out: TGI
YOSHIDA [11] = test: Antitumor activity against rat Yoshida cells allografted in Donryu rat assessed as tumor inhibition at 0.15 mmol/kg, po qd for 7 days measured on day 10 relative to control; type: functional; settings: read-out: TGI
Rattus norvegicus [12] = test: Toxicity in Donryu rat allografted with rat AH-130 cells assessed as body weight change at 0.15 mmol/kg, po administered for 7 days measured on day 10 relative to control; type: organism-based; settings: in vivo, 168 h
[13] = Toxicity in po dosed ddY mouse after 3 weeks by up and down method; type: organism-based; settings: in vivo
[14] = Toxicity in po dosed ddY mouse after 3 days by up and down method; type: organism-based; settings: in vivo
W256 [15] = test: Antitumor activity against rat Walker 256 cells allografted in Wistar rat assessed as tumor inhibition at 0.08 mmol/kg, po qd for 7 days measured on day 10 relative to control; type: functional; settings: read-out: TGI
Sarcoma-180 [16] = test: Antitumor activity against mouse Sarcoma 180 cells allografted in ICR mouse assessed as tumor inhibition at 0.08 mmol/kg, po qd for 7 days measured on day 10 relative to control; type: functional; settings: Sarcoma-180, po, read-out: TGI
[17] = Antitumor activity against rat AH-130 cells allografted in Donryu rat assessed as tumor inhibition at 0.08 mmol/kg, po qd for 7 days measured on day 10 relative to control; type: functional; settings: read-out: TGI
Rattus norvegicus [18] = test: Toxicity in Donryu rat allografted with rat AH-130 cells assessed as body weight change at 0.08 mmol/kg, po administered for 7 days measured on day 10 relative to control; type: organism-based; settings: in vivo, 168 h
[19] = Antitumor activity against mouse Ehrlich carcinoma cells allografted in ddY mouse assessed as tumor inhibition at 0.08 mmol/kg, po qd for 7 days measured on day 10 relative to control; type: functional; settings: read-out: TGI
YOSHIDA [20] = test: Antitumor activity against rat Yoshida cells allografted in Donryu rat assessed as tumor inhibition at 0.08 mmol/kg, po qd for 7 days measured on day 10 relative to control; type: functional; settings: read-out: TGI

## O=c1[nH]c(=O)n(C2CCCO2)cc1F (stereo not drawn) [TEGAFUR]
Rattus norvegicus [1]
  Activity: 40.9 g
[2]
  inhibition in vivo at 450 µmol/kg: 54%
W256 [3]
  inhibition in vivo at 450 µmol/kg: 31%
YOSHIDA [4]
  inhibition in vivo at 450 µmol/kg: 52%
Sarcoma-180 [5]
  inhibition in vivo at 450 µmol/kg: 37%
W256 [6]
  inhibition in vivo at 150 µmol/kg: 27%
[7]
  inhibition in vivo at 150 µmol/kg: 22%
[8]
  inhibition in vivo at 150 µmol/kg: 38%
[9]
  inhibition in vivo at 450 µmol/kg: 35%
Sarcoma-180 [10]
  inhibition in vivo at 150 µmol/kg: 38%
YOSHIDA [11]
  inhibition in vivo at 150 µmol/kg: 32%

## O=c1[nH]cc(F)c(=O)n1C1CCCO1 (stereo not drawn)
Rattus norvegicus [1]
  Activity: 21.7 g
Rattus norvegicus [12]
  Activity: 47.3 g
[7]
  inhibition in vivo at 150 µmol/kg: 45%
[9]
  inhibition in vivo at 450 µmol/kg: 80%

## O=c1c(F)cn(C2CCCO2)c(=O)n1C1CCCO1 (stereo not drawn)
[2]
  inhibition in vivo at 450 µmol/kg: 61%
W256 [3]
  inhibition in vivo at 450 µmol/kg: 37%
YOSHIDA [4]
  inhibition in vivo at 450 µmol/kg: 58%
Sarcoma-180 [5]
  inhibition in vivo at 450 µmol/kg: 56%
W256 [6]
  inhibition in vivo at 150 µmol/kg: 27%
[7]
  inhibition in vivo at 150 µmol/kg: 32%
[8]
  inhibition in vivo at 150 µmol/kg: 50%
[13]
  LD50 at 504 h: 2660 mg/kg
[14]
  LD50 at 72 h: 2900 mg/kg
[9]
  inhibition in vivo at 450 µmol/kg: 44%
Sarcoma-180 [10]
  inhibition in vivo at 150 µmol/kg: 45%
YOSHIDA [11]
  inhibition in vivo at 150 µmol/kg: 43%

## O=c1[nH]cc(F)c(=O)[nH]1 [FLUOROURACIL]
W256 [15]
  inhibition in vivo at 80 µmol/kg: 24%
Sarcoma-180 [16]
  inhibition in vivo at 80 µmol/kg: 48%
[17]
  inhibition in vivo at 80 µmol/kg: 33%
Rattus norvegicus [18]
  Activity: 42.1 g
[19]
  inhibition in vivo at 80 µmol/kg: 42%
YOSHIDA [20]
  inhibition in vivo at 80 µmol/kg: 41%
